Experiment [1] can be described thus: APCC in vivo screen: blood cholesterol in male Sprague-Dawley rats on high fat, high cholesterol diet with 0.5% cholic acid. Particulars: high fat high cholesterol diet overnight; for change in vivo at 30 mg/kg / % Change (mg/dl) (cholesterol): single dose 30 mg/kg; for change in vivo at 30 mg/kg / change in vivo at 50 mg/kg: read-out: % Change (mg/dl) (cholesterol); for % Change (mg/dl) (cholesterol): 30 mg/kg; for change in vivo at 50 mg/kg: single dose 50 mg/kg (*). From the text: In one in vivo screen designated APCC, male Sprague-Dawley rats (200 to 225 g) were randomly divided into treatment groups and dosed at 4 PM with either vehicle (CMC/Tween) or suspensions of compounds in vehicle. The normal chow diet was then replaced with a high fat, high cholesterol diet with 0.5% cholic acid. The rats consumed this diet ad libitum during the night and were sacrificed at 8 AM to obtain blood samples for cholesterol analysis using standard procedures. Statistical differences between mean cholesterol values for the same vehicle were determined using analysis of variance followed by Fisher's least significant test. The compounds were dosed at 30 mg/kg unless otherwise noted.

Experiment [2] addresses T1, acyl-CoA: cholesterol acyltransferase (ACAT) (Oryctolagus cuniculus, UniProt G1SFD9).
T1 construct: tissue preparation containing rabbit intestinal microsomes; from tissue; host or cells: rabbit intestinal microsomes
T1 sequence (G1SFD9 1-524): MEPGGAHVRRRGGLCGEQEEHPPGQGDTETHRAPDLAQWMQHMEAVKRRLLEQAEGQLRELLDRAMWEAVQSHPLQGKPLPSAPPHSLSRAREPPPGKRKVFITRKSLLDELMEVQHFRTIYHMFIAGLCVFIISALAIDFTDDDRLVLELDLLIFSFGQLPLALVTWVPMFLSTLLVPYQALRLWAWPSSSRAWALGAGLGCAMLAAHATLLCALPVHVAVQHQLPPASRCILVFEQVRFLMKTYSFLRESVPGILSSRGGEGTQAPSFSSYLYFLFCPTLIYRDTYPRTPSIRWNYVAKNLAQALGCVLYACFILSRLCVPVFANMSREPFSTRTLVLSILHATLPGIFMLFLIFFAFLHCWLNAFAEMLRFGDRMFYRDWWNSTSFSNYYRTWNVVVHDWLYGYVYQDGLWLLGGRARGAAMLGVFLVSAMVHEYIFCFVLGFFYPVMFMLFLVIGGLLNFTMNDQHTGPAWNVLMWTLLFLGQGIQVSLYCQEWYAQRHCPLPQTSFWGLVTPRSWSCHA
Put plainly: in vitro ACAT inhibition (IAI): formation of radiolabeled cholesterol oleate from radiolabeled oleic acid in rabbit intestinal microsomes. The format is biochemical. As to the method:
The ability of representative compounds of the present invention to inhibit ACAT was measured using an in vitro test more fully described in F. J. Field and R. G. Salone, Biochemica et Biophysica 712:557-570 (1982). The test assesses the ability of a test compound to inhibit the acylation of cholesterol by oleic acid by measuring the amount of radiolabeled cholesterol oleate formed from radiolabeled oleic acid in a tissue preparation containing rabbit intestinal microsomes.

[3] abbreviates: rabbit intestinal microsomes, read-out: IAI IC50.

For orientation: IC50 means the concentration needed to halve the response being measured.

Structures can show the parent of a compound that is named as a salt. Where two headings read alike, the source gives them in different places.

Take `CC(C)c1cccc(C(C)C)c1OC(=O)NS(=O)(=O)N1CCCCC1` [Example 51, 2,6-Bis(1-methylethyl)-phenyl ester(1-piperidinylsulfonyl)-carbamic acid]: the change in vivo at 30 mg/kg in experiment [1] (Rattus norvegicus) is -11%. Besides, in experiment [2] (setting [3]), the IC50 was above 100 µM.

Consider `CCCCN(CCCC)S(=O)(=O)NC(=O)Oc1c(C(C)C)cccc1C(C)C` [Example 11, 2,6-Bis(1-methylethyl)phenyl[(dibutylamino)sulfonyl]carbamate], for which the “% Change (mg/dl) (cholesterol)” value in experiment [1] (rat) was -57 % Change (mg/dl). In addition, in experiment [2] (setting [3]), the IC50 came out at 1.9 µM.

On to `CC(C)c1cccc(C(C)C)c1OC(=O)NS(=O)(=O)N1CCOCC1` [Example 50, 2,6-Bis(1-methylethyl)-phenyl ester(4-morpholinylsulfonyl)-carbamic acid], for which the change in vivo at 30 mg/kg in experiment [1] (Rattus norvegicus) was -14%. In addition, in experiment [2] (setting [3]), the IC50 is above 100 µM.

For `Cc1cc(C(C)(C)C)c(OC(=O)NS(=O)(=O)N(C)CCc2ccccc2)c(C(C)(C)C)c1` [Example 27, 2,6-Bis(1,1-dimethylethyl)-4-methylphenyl[[methyl(2-phenylethyl)amino]sulfonyl]carbamate], in experiment [1] (Rattus norvegicus), the change in vivo at 30 mg/kg was -29%. In experiment [2] (setting [3]), the IC50 amounted to 18.9 µM.

In the case of `COC(=O)NS(=O)(=O)Nc1c(C(C)C)cccc1C(C)C` [Example 1, Methyl [[2,6-bis(1-methylethyl)phenylamino]sulfonyl]carbamate], the half-maximal inhibitory concentration (IC50) in experiment [2] (setting [3]) was above 100 µM.

For the molecule `Cc1cc(C(C)(C)C)c(OC(=O)NS(=O)(=O)N(C)CCc2ccccn2)c(C(C)(C)C)c1` [Example 32, 2,6-Bis(1,1-dimethylethyl)-4-methylphenyl[[[methyl 2-(2-pyridinyl)ethyl]amino]sulfonyl]carbamate, hydrochloride salt], the “% Change (mg/dl) (cholesterol)” value in experiment [1] (rat, hydrochloride salt) is recorded as -10 % Change (mg/dl). Moreover, in experiment [2] (setting [3]), the IC50 amounted to 31 µM.

Regarding `CC(C)c1cccc(C(C)C)c1OC(=O)NS(=O)(=O)N1CCN(C)CC1` [Example 53, 2,6-Bis(1-methylethyl)-phenyl ester, monohydrochloride[(4-methyl-1-piperazinyl)-sulfonyl] carbamic acid], the change in vivo at 30 mg/kg in experiment [1] (rat) is -21%. The molecule further displayed a 50% inhibitory concentration (IC50) in experiment [2] above 100 µM.

Turning to `CC(C)c1cccc(C(C)C)c1NS(=O)(=O)NC(=O)Oc1c(-c2ccccc2)cccc1-c1ccccc1` [Example 56, [1,1':3', 1"-terphenyl]-2'-yl[[[2,6-bis(1-methylethyl)phenyl]amino]sulfonyl]carbamat], the change in vivo at 30 mg/kg in experiment [1] (Rattus norvegicus) is -39%. For the same molecule, the IC50 in experiment [2] (setting [3]) is above 25 µM.

As for `CC(C)c1cccc(C(C)C)c1OC(=O)NS(=O)(=O)NC(c1ccccc1)c1ccccc1` [Example 17, 2,6-Bis(1-methylethyl)phenyl[[(diphenylmethyl)amino]sulfonyl]carbamate], the change in vivo at 50 mg/kg in experiment [1] (Rattus norvegicus) was -46%.

On to `CCCCCN(CCCCC)S(=O)(=O)NC(=O)Oc1c(C(C)(C)C)cc(C)cc1C(C)(C)C` [Example 23, 2,6-Bis(1,1-dimethylethyl)-4-methylphenyl[(dipentylamino)sulfonyl]carbamat], for which, in experiment [1] (Rattus norvegicus), the change in vivo at 30 mg/kg was -42%.

`Cc1cc(C(C)(C)C)c(OC(=O)NS(=O)(=O)Nc2ccccc2)c(C(C)(C)C)c1` [Example 21, 2,6-Bis(1,1-dimethylethyl)-4-methylphenyl[(phenylamino)sulfonyl]carbamate]: the change in vivo at 50 mg/kg in experiment [1] (Rattus norvegicus) is -33%.

Consider `CC(C)c1cccc(C(C)C)c1OC(=O)NS(=O)(=O)NCC(c1ccccc1)c1ccccc1` [Example 15], for which the change in vivo at 50 mg/kg in experiment [1] (Rattus norvegicus) was -29%.

In the case of `CCCCCN(CCCCC)S(=O)(=O)NC(=O)Oc1c(C(C)C)cccc1C(C)C` [Example 42, 2,6-Bis(1-methylethyl)phenyl[(dipentylamino)sulfonyl]carbamate], the change in vivo at 30 mg/kg in experiment [1] (Rattus norvegicus) is -74%.

Values taken from patent US5336690A, “Aminosulfonyl carbamates composition and method of use to treat hypercholesterolemia and atherosclerosis” (Warner-Lambert Company, priority 1993, dated 1994).
